Reference: patent US20210330611A1, “THERAPY FOR NEUROLOGICAL DISEASES/DISORDERS” (priority 2020, published 2021)
Where a name gives a salt, the structure may show the parent alone. Read-outs that look alike come from different tables or passages of the source.

Tests used:
[1] = test system: fibrin-induced microglia activation; test: Image-based assay of fibrin-induced microglia activation (HTS and dose response); format: cell-based, rat; conditions: for inhibition at 10 µM: read-out: Fibrin % inhibition
[2] = test system: LPS-induced microglia activation; test: Image-based assay of LPS-induced microglia activation (HTS and dose response); format: cell-based, rat; conditions: for inhibition at 10 µM: 48 h, read-out: LPS % inhibition
[3] = test system: fibrin- and LPS-induced microglia activation; test: cells; format: cell-based, rat
primary rat microglia [4] = test: Cell toxicity (dead cells, size <150 μm2) in LPS assay; conditions: primary microglia HTS, LPS stimulation
primary rat microglia [5] = test: Cell toxicity (dead cells, size <150 μm2) in coated fibrin (cFib) assay; conditions: primary microglia HTS, fibrin stimulation;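 also: share of dead cells sized under 150 µm2 at 10 µM in fibrin-stimulated microglia HTS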
[6] = quadrant by fibrin and LPS inhibition in HTS of 1907 compounds
[7] = Rattus norvegicus, Microglia, primary microglia HTS, fibrin stimulation, increased cell size (>800 μm^2) as marker of activation
[8] = Rattus norvegicus, Microglia, primary microglia HTS, LPS stimulation, increased cell size (>800 μm^2) as marker of activation
[9] = decreased size (<150 μm^2) as marker of toxicity
[10] = Rattus norvegicus, Microglia, primary microglia HTS, fibrin stimulation, activation = cell size >800 μm2
[11] = Rattus norvegicus, Microglia, primary microglia HTS, LPS stimulation, activation = cell size >800 μm2

Oc1c(Cl)cc(Cl)c(Cl)c1Cc1c(O)c(Cl)cc(Cl)c1Cl [Hexachlorophene]
inhibition at 10 µM ([1]; Rattus norvegicus, Microglia): -19% | inhibition at 10 µM ([2]; Rattus norvegicus, Microglia): 15% | Quadrant (FIG. 5b) [3, 6]: Q4 | LPS % cell toxicity (primary rat microglia [4]; toxicity = cell size <150 μm2): 0% | Fibrin % cell toxicity (primary rat microglia [5]; toxicity = cell size <150 μm2): 0%

C[N+](C)(C)CCCCCC[N+](C)(C)C [Hexamethonium]
inhibition at 10 µM [1, 7]: 108% | inhibition at 10 µM [2, 8]: 100% | Quadrant (FIG. 5b) [3, 6]: Q2 | LPS % cell toxicity (primary rat microglia [4]; [9]): 2% | Fibrin % cell toxicity (primary rat microglia [5]; [9]): 9%

C1N2CN3CN1CN(C2)C3 [Hexamethylenetetramine]
inhibition at 10 µM [1, 10]: -9% | inhibition at 10 µM [2, 11]: 20% | Quadrant (FIG. 5b) [3, 6]: Q4 | LPS % cell toxicity (primary rat microglia [4]; toxicity = cell size <150 μm2): 0% | Fibrin % cell toxicity (primary rat microglia [5]; toxicity = cell size <150 μm2): 1%

CC[C@H](c1ccc(O)cc1)[C@@H](CC)c1ccc(O)cc1 [Hexestrol]
inhibition at 10 µM [1, 10]: -29% | inhibition at 10 µM [2, 11]: 7% | Quadrant (FIG. 5b) [3, 6]: Q4 | LPS % cell toxicity (primary rat microglia [4]; toxicity = cell size <150 μm2): 0% | Fibrin % cell toxicity (primary rat microglia [5]; toxicity = cell size <150 μm2): 1%

CCCCC(CC)CN1CN(CC(CC)CCCC)CC(C)(N)C1 (stereo not shown) [Hexetidine]
inhibition at 10 µM [1, 10]: -85% | inhibition at 10 µM [2, 11]: 19% | Quadrant (FIG. 5b) [3, 6]: Q4 | LPS % cell toxicity (primary rat microglia [4]; toxicity = cell size <150 μm2): 0% | Fibrin % cell toxicity (primary rat microglia [5]; toxicity = cell size <150 μm2): 1%

CCCCCCc1ccc(O)cc1O [Hexylresorcinol]
inhibition at 10 µM [1, 10]: -6% | inhibition at 10 µM [2, 11]: 18% | Quadrant (FIG. 5b) [3, 6]: Q4 | LPS % cell toxicity (primary rat microglia [4]; toxicity = cell size <150 μm2): 0% | Fibrin % cell toxicity (primary rat microglia [5]; toxicity = cell size <150 μm2): 1%

C[N+]1(C)[C@@H]2CC[C@H]1C[C@@H](OC(=O)C(O)c1ccccc1)C2 (stereo partly shown) [Homatropine Methylbromide]
inhibition at 10 µM [1, 10]: -18% | inhibition at 10 µM [2, 11]: 12% | Quadrant (FIG. 5b) [3, 6]: Q4 | LPS % cell toxicity (primary rat microglia [4]; toxicity = cell size <150 μm2): 0% | Fibrin % cell toxicity (primary rat microglia [5]; toxicity = cell size <150 μm2): 1%

CC[n+]1c(-c2ccccc2)c2cc(N)ccc2c2ccc(N)cc21 [Homidium Bromide]
inhibition at 10 µM [1, 7]: 84% | inhibition at 10 µM [2, 8]: 103% | Quadrant (FIG. 5b) [3, 6]: Q2 | LPS % cell toxicity (primary rat microglia [4]; [9]): 9% | Fibrin % cell toxicity (primary rat microglia [5]; [9]): 17%

COC(=O)C[C@](O)(CCCC(C)(C)O)C(=O)O[C@@H]1C(OC)=C[C@]23CCCN2CCc2cc4c(cc2[C@H]13)OCO4 [Homoharringtonie]
Fibrin % inhibition ([1]; primary microglia HTS, fibrin stimulation, increased cell size (>800 μm^2) as marker of activation): 106% | LPS % inhibition ([2]; primary microglia HTS, LPS stimulation, increased cell size (>800 μm^2) as marker of activation): 106% | Quadrant (FIG. 5b) [3, 6]: Q2 | LPS % cell toxicity (primary rat microglia [4]; [9]): 67% | Fibrin % cell toxicity (primary rat microglia [5]; [9]): 90%

CN1CCc2cc3c(cc2C1O)OCO3 (stereo not shown) [Hydrastinine Hydrochloride]
inhibition at 10 µM [1, 10]: 0% | inhibition at 10 µM [2, 11]: 22% | Quadrant (FIG. 5b) [3, 6]: Q4 | LPS % cell toxicity (primary rat microglia [4]; toxicity = cell size <150 μm2): 0% | Fibrin % cell toxicity (primary rat microglia [5]; toxicity = cell size <150 μm2): 1%

NS(=O)(=O)c1cc2c(cc1Cl)NCNS2(=O)=O [Hydrochlorothiazide]
inhibition at 10 µM [1, 10]: -29% | inhibition at 10 µM [2, 11]: 21% | Quadrant (FIG. 5b) [3, 6]: Q4 | LPS % cell toxicity (primary rat microglia [4]; toxicity = cell size <150 μm2): 0% | Fibrin % cell toxicity (primary rat microglia [5]; toxicity = cell size <150 μm2): 0%

CC(=O)OCC(=O)[C@@]1(O)CC[C@H]2[C@@H]3CCC4=CC(=O)CC[C@]4(C)[C@H]3[C@@H](O)C[C@@]21C [Hydrocortisone acetate, reference compound]
IC50 ([1]; Rattus norvegicus, Microglia, Table 7, read-out: fib_IC50): 10 nM | inhibition at 10 µM [1, 7]: 112% | inhibition at 10 µM [2, 8]: 89% | IC50 ([2]; Rattus norvegicus, Microglia, Table 7, read-out: LPS_IC50): 17 nM | Quadrant (FIG. 5b) ([3]; Table 2, screen at 10 μM): Q2 | Activity ([3]; Table 7, fib = fibrin, LPS, tox = toxicity): fib/LPS | Quadrant (FIG. 5b) [3, 6]: Q2 | LPS % cell toxicity (primary rat microglia [4]; [9]): 4% | Fibrin % cell toxicity (primary rat microglia [5]; [9]): 4%

NS(=O)(=O)c1cc2c(cc1C(F)(F)F)NCNS2(=O)=O [Hydroflumethiazide]
inhibition at 10 µM [1, 10]: -9% | inhibition at 10 µM [2, 11]: 11% | Quadrant (FIG. 5b) [3, 6]: Q4 | LPS % cell toxicity (primary rat microglia [4]; toxicity = cell size <150 μm2): 0% | Fibrin % cell toxicity (primary rat microglia [5]; toxicity = cell size <150 μm2): 0%

CC[C@H]1CN2CC[C@H]1C[C@@H]2[C@@H](O)c1ccnc2ccc(OC)cc12 [Hydroquinidine]
inhibition at 10 µM [1, 10]: -8% | inhibition at 10 µM [2, 11]: 18% | Quadrant (FIG. 5b) [3, 6]: Q4 | LPS % cell toxicity (primary rat microglia [4]; toxicity = cell size <150 μm2): 0% | Fibrin % cell toxicity (primary rat microglia [5]; toxicity = cell size <150 μm2): 1%

CC(N)Cc1ccc(O)cc1 (stereo not shown) [Hydroxyamphetamine]
inhibition at 10 µM [1, 10]: -12% | inhibition at 10 µM [2, 11]: -2% | Quadrant (FIG. 5b) [3, 6]: Q4 | LPS % cell toxicity (primary rat microglia [4]; toxicity = cell size <150 μm2): 0% | Fibrin % cell toxicity (primary rat microglia [5]; toxicity = cell size <150 μm2): 1%
